{"source": "patent US9226916B2", "about": "“Pyrrolidine derivatives” (HOFFMANN-LA ROCHE INC., priority 2009, dated 2016)"}
{"biological_target": "T1, recombinant human NK3 receptor (Homo sapiens, UniProt P29371)", "T1 construct": "expressed in transfected cells; host or cells: HEK293 cells, transient expression; membranes", "T1 sequence (P29371 1-465)": "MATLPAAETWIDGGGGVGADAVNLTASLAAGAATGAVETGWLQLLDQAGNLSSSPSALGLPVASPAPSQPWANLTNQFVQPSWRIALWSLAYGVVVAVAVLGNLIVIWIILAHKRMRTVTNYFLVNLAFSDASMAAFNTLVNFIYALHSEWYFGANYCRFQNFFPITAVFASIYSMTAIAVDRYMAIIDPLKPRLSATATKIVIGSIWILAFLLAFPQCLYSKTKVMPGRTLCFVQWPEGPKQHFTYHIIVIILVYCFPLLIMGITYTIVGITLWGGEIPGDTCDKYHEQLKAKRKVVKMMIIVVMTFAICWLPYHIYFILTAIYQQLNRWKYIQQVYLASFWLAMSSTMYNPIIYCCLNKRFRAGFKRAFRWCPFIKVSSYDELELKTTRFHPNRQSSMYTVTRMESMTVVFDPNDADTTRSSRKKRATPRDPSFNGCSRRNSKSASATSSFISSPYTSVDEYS", "experiment": "[3H]SR142801 competition binding assay", "settings": "not given", "units": {"Ki": "nM"}}
{"smiles": "CN(C(=O)O[C@@H]1C[C@H]2CC[C@@H]1C2)[C@H]1CN(C(=O)C2CCN(C(=O)C3(C)CC3)CC2)C[C@@H]1c1ccc(Cl)c(Cl)c1", "note": "(mixture of isomers) [Example 69, {(3R,4S)-4-(3,4-Dichloro-phenyl)-1-[1-(1-methyl-cyclopropanecarbonyl)-piperidine-4-carbonyl]-pyrrolidin-3-yl}-methyl-carbamic acid (1R,2R,4S)-bicyclo[2.2.1]hept-2-yl ester and {(3S,4R)-4-(3,4-Dichloro-phenyl)-1-[1-(1-methyl-cyclopropanecarbonyl)-piperidine-4-carbonyl]-pyrrolidin-3-yl}-methyl-carbamic acid (1R,2R,4S)-bicyclo[2.2.1]hept-2-yl ester]", "Ki": 7.6}
{"smiles": "CN(C(=O)OCCC(C)(C)C)[C@H]1CN(C(=O)C2CCN(C(=O)C3(C)CC3)CC2)C[C@@H]1c1ccc(Cl)c(Cl)c1", "note": "(racemic) [Example 30, rac-{(3R,4S)-4-(3,4-Dichloro-phenyl)-1-[1-(1-methyl-cyclopropanecarbonyl)-piperidine-4-carbonyl]-pyrrolidin-3-yl}-methyl-carbamic acid 3,3-dimethyl-butyl ester]", "Ki": 10.3}
{"smiles": "CN(C(=O)Oc1ccc(F)cc1)[C@@H]1CN(C(=O)C2CCCOC2)C[C@H]1c1ccc(Cl)cc1", "note": "(stereo partly drawn) [Example 147, [(3S,4R)-4-(4-Chloro-phenyl)-1-(tetrahydro-pyran-3-carbonyl)-pyrrolidin-3-yl]-methyl-carbamic acid 4-fluoro-phenyl ester]", "Ki": 73.7}
{"smiles": "CCC(OC(=O)N(C)[C@@H]1CN(C(=O)C2CCN(c3ccc(C#N)cn3)CC2)C[C@H]1c1ccc(Cl)cc1)c1ccc(F)cc1", "note": "(stereo partly drawn) [Example 236, [(3S,4R)-4-(4-Chloro-phenyl)-1-(5′-cyano-3,4,5,6-tetrahydro-2H-[1,2′]bipyridinyl-4-carbonyl)-pyrrolidin-3-yl]-methyl-carbamic acid 1-(4-fluoro-phenyl)-propyl ester]", "Ki": 64.8}
{"smiles": "CN(C(=O)Oc1ccc(F)cc1)[C@@H]1CN(C(=O)C2CCN(C(=O)C3CCOC(C)(C)C3)CC2)C[C@H]1c1ccc(Cl)cc1", "note": "(stereo partly drawn) [Example 258, {(3S,4R)-4-(4-Chloro-phenyl)-1-[1-(2,2-dimethyl-tetrahydro-pyran-4-carbonyl)-piperidine-4-carbonyl]-pyrrolidin-3-yl}-methyl-carbamic acid 4-fluoro-phenyl ester]", "Ki": 2.9}
{"smiles": "CN(C(=O)Oc1ccc(F)cc1)[C@@H]1CN(C(=O)C2CCN(C(=O)C3(C)CC3)CC2)C[C@H]1c1ccc(Cl)c(Cl)c1", "note": "[Example 6, {(3S,4R)-4-(3,4-Dichloro-phenyl)-1-[1-(1-methyl-cyclopropanecarbonyl)-piperidine-4-carbonyl]-pyrrolidin-3-yl}-methyl-carbamic acid 4-fluoro-phenyl ester]", "Ki": 0.5}
{"smiles": "CN(C(=O)Oc1cccc(C#N)c1)[C@@H]1CN(C(=O)C2CCN(c3ccc(C#N)cn3)CC2)C[C@H]1c1ccc(Cl)cc1", "note": "[Example 225, [(3S,4R)-4-(4-Chloro-phenyl)-1-(5′-cyano-3,4,5,6-tetrahydro-2H-[1,2′]bipyridinyl-4-carbonyl)-pyrrolidin-3-yl]-methyl-carbamic acid 3-cyano-phenyl ester]", "Ki": 11.2}
{"smiles": "CN(C(=O)Oc1ccc(F)cc1)[C@@H]1CN(C(=O)C2CCOCC2)C[C@H]1c1ccc(Cl)cc1", "note": "[Example 90, [(3S,4R)-4-(4-Chloro-phenyl)-1-(tetrahydro-pyran-4-carbonyl)-pyrrolidin-3-yl]-methyl-carbamic acid 4-fluoro-phenyl ester]", "Ki": 7.9}
{"smiles": "CN(C(=O)OC1CCC(F)(F)CC1)[C@H]1CN(C(=O)C2CCN(C(=O)C3(C)CC3)CC2)C[C@@H]1c1ccc(Cl)c(Cl)c1", "note": "(racemic) [Example 102, rac-{(3R,4S)-4-(3,4-Dichloro-phenyl)-1-[1-(1-methyl-cyclopropanecarbonyl)-piperidine-4-carbonyl]-pyrrolidin-3-yl}-methyl-carbamic acid 4,4-difluoro-cyclohexyl ester]", "Ki": 4}
{"smiles": "CN(C(=O)Oc1ccc(F)cc1)[C@@H]1CN(C(=O)C2CCN(c3ccc(C(F)(F)F)cn3)CC2)C[C@H]1c1ccc(Cl)cc1", "note": "[Example 181, [(3S,4R)-4-(4-Chloro-phenyl)-1-(5′-trifluoromethyl-3,4,5,6-tetrahydro-2H-[1,2′]bipyridinyl-4-carbonyl)-pyrrolidin-3-yl]-methyl-carbamic acid 4-fluoro-phenyl ester]", "Ki": 2.8}
{"smiles": "CN(C(=O)OCCCC(F)(F)F)[C@H]1CN(C(=O)C2CCN(c3ccc(C#N)cn3)CC2)C[C@@H]1c1ccc(Cl)cc1", "note": "[Example 128, [(3R,4S)-4-(4-Chloro-phenyl)-1-(5′-cyano-3,4,5,6-tetrahydro-2H-[1,2′]bipyridinyl-4-carbonyl)-pyrrolidin-3-yl]-methyl-carbamic acid 4,4,4-trifluoro-butyl ester]", "Ki": 68}
{"smiles": "CN(C(=O)Oc1ccc(F)cc1)[C@H]1CN(C(=O)C2CCN(C3CCOCC3)CC2)C[C@@H]1c1ccc(Cl)c(Cl)c1", "note": "(racemic) [Example 77, rac-{(3R,4S)-4-(3,4-Dichloro-phenyl)-1-[1-(tetrahydro-pyran-4-yl)-piperidine-4-carbonyl]-pyrrolidin-3-yl}-methyl-carbamic acid 4-fluoro-phenyl ester]", "Ki": 1.5}
{"smiles": "CN(C(=O)Oc1ccc(F)cc1)[C@@H]1CN(C(=O)C2CCOC(C)(C)C2)C[C@H]1c1ccc(Cl)cc1", "note": "(stereo partly drawn) [Example 146, [(3S,4R)-4-(4-Chloro-phenyl)-1-(2,2-dimethyl-tetrahydro-pyran-4-carbonyl)-pyrrolidin-3-yl]-methyl-carbamic acid 4-fluoro-phenyl ester]", "Ki": 6.8}
{"smiles": "CN(C(=O)Oc1ccc(F)cc1)[C@H]1CN(C(=O)C2CCN(C(=O)C3(C)CC3)CC2)C[C@@H]1c1ccc(Cl)cc1", "note": "[Example 38, {(3R,4S)-4-(4-Chloro-phenyl)-1-[1-(1-methyl-cyclopropanecarbonyl)-piperidine-4-carbonyl]-pyrrolidin-3-yl}-methyl-carbamic acid 4-fluoro-phenyl ester]", "Ki": 42}
{"smiles": "CN(C(=O)O[C@H]1CC[C@H](C)CC1)[C@H]1CN(C(=O)C2CCN(C(=O)C3(C)CC3)CC2)C[C@@H]1c1ccc(Cl)cc1", "note": "(racemic) [Example 57, rac-{(3R,4S)-4-(4-Chloro-phenyl)-1-[1-(1-methyl-cyclopropanecarbonyl)-piperidine-4-carbonyl]-pyrrolidin-3-yl}-methyl-carbamic acid 4-methyl-cyclohexyl ester]", "Ki": 7.6}
{"smiles": "CN(C(=O)Oc1ccc(F)cc1)[C@@H]1CN(C(=O)C2CCN(C(=O)C3(C)CC3)CC2)C[C@@H]1c1ccc(Cl)c(Cl)c1", "note": "(stereo in doubt) [Example 62, {(3S,4S)-4-(3,4-Dichloro-phenyl)-1-[1-(1-methyl-cyclopropanecarbonyl)-piperidine-4-carbonyl]-pyrrolidin-3-yl}-methyl-carbamic acid 4-fluoro-phenyl ester]", "Ki": 31.4}
{"smiles": "CN(C(=O)Oc1ccc(F)cc1)[C@@H]1CN(C(=O)C2CCN(C(=O)C3(C#N)CC3)CC2)C[C@H]1c1ccc(Cl)cc1", "note": "[Example 254, {(3S,4R)-4-(4-Chloro-phenyl)-1-[1-(1-cyano-cyclopropanecarbonyl)-piperidine-4-carbonyl]-pyrrolidin-3-yl}-methyl-carbamic acid 4-fluoro-phenyl ester]", "Ki": 2}
{"smiles": "COC1CC(C(=O)N2CCC(C(=O)N3C[C@@H](N(C)C(=O)Oc4ccc(F)cc4)[C@H](c4ccc(Cl)c(Cl)c4)C3)CC2)C1", "note": "(stereo partly drawn) [Example 269, {(3S,4R)-4-(3,4-Dichloro-phenyl)-1-[1-(3-methoxy-cyclobutanecarbonyl)-piperidine-4-carbonyl]-pyrrolidin-3-yl}-methyl-carbamic acid 4-fluoro-phenyl ester]", "Ki": 0.5}
{"smiles": "Cc1nnc(N2CCC(C(=O)N3C[C@@H](N(C)C(=O)Oc4ccc(F)cc4)[C@H](c4ccc(Cl)cc4)C3)CC2)o1", "note": "[Example 134, {(3S,4R)-4-(4-Chloro-phenyl)-1-[1-(5-methyl-[1,3,4]oxadiazol-2-yl)-piperidine-4-carbonyl]-pyrrolidin-3-yl}-methyl-carbamic acid 4-fluoro-phenyl ester]", "Ki": 3.6}
{"smiles": "CN(C(=O)Oc1ccc(F)cc1)[C@@H]1CN(C(=O)C2CCN(C(=O)C3(C(F)(F)F)CCC3)CC2)C[C@H]1c1ccc(Cl)c(Cl)c1", "note": "[Example 270, {(3S,4R)-4-(3,4-Dichloro-phenyl)-1-[1-(1-trifluoromethyl-cyclobutanecarbonyl)-piperidine-4-carbonyl]-pyrrolidin-3-yl}-methyl-carbamic acid 4-fluoro-phenyl ester]", "Ki": 0.6}
{"biological_target": "T1, recombinant human NK3 receptor", "experiment": "[3H]SR142801 competition binding assay", "settings": "hNK-3 receptor affinity; membranes from HEK293 cells transiently expressing recombinant human NK3 receptor; [3H]SR142801; Cheng-Prussoff; read-out: Data Ki", "units": {"Ki": "nM"}}
{"smiles": "CN(C(=O)OCC(F)(F)F)[C@@H]1CN(C(=O)C2CCN(C(=O)C3(C)CC3)CC2)C[C@H]1c1ccc(Cl)cc1", "note": "[Example 164, {(3S,4R)-4-(4-Chloro-phenyl)-1-[1-(1-methyl-cyclopropanecarbonyl)-piperidine-4-carbonyl]-pyrrolidin-3-yl}-methyl-carbamic acid 2,2,2-trifluoro ethyl ester]", "Ki": 81.4}
{"smiles": "CN(C(=O)OCCC(F)(F)F)[C@@H]1CN(C(=O)C2CCN(c3ccc(C#N)cn3)CC2)C[C@H]1c1ccc(Cl)cc1", "note": "[Example 144, [(3S,4R)-4-(4-Chloro-phenyl)-1-(5′-cyano-3,4,5,6-tetrahydro-2H-[1,2′]bipyridinyl-4-carbonyl)-pyrrolidin-3-yl]-methyl-carbamic acid 3,3,3-trifluoro-propyl ester]", "Ki": 21.1}
